{"source": "paper PMC6766655", "about": "“AhR–ROR-γt complex is a therapeutic target for MAP4K3/GLK^highIL-17A^high subpopulation of systemic lupus erythematosus” (The FASEB Journal, 2019)", "key": {"HPK1 (MAP4K1)": {"molecular_target": "T1, HPK1 (MAP4K1) (Homo sapiens, UniProt Q92918)", "T1 construct": "Recombinant proteins of kinase domains of various MAP4Ks were used; purchased Promega", "T1 sequence (Q92918 17-274 limits assumed)": "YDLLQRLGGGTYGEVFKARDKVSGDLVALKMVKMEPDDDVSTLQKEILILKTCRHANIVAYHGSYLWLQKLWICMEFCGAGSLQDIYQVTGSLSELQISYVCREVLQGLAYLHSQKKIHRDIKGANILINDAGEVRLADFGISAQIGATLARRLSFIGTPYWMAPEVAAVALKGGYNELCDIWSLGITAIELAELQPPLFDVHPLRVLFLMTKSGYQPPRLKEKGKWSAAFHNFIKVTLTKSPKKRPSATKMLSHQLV", "test": "In vitro kinase assay, myelin basic protein as substrate (ADP-Glo)", "type": "biochemical", "conditions": "recombinant kinase domain"}, "KHS (MAP4K5)": {"molecular_target": "T2, KHS (MAP4K5) (Homo sapiens, UniProt Q9Y4K4)", "T2 construct": "Recombinant proteins of kinase domains of various MAP4Ks were used; purchased Promega", "T2 sequence (Q9Y4K4 20-277 limits assumed)": "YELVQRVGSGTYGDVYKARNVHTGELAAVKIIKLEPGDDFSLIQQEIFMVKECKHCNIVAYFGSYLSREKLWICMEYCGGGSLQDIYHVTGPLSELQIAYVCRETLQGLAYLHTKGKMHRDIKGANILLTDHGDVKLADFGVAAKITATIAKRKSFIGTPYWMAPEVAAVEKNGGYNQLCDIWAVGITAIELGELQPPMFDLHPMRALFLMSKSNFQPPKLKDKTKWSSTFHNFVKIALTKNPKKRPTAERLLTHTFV", "test": "In vitro kinase assay, myelin basic protein as substrate (ADP-Glo)", "type": "biochemical", "conditions": "recombinant kinase domain"}, "CIA mice": {"test_system": "CIA mice", "test": "Collagen-induced arthritis (CIA) in wild-type C57BL/6J mice", "type": "in vivo", "protocol": "At 12 wk of age (d 0), male C57BL/6J mice were intradermally injected in the superficial layer of tail dermis with a total of 100 μl of an emulsion containing the chicken type II chicken collagen or Freund’s complete adjuvant emulsification (MD Biosciences, Oakdale, MN, USA) ([23]). The same injection was repeated intraperitoneally on d 21. Then, clinical signs of disease were assigned using the following clinical scores: 1, swollen digits; 2, erythema; 3, swollen paw or ankle; 4, loss of function. Mice were treated with verteporfin at a concentration of 0.4 μg/g body weight (0.556 nmol/g) by intravenous injection every 3 d starting from d 21 up to d 36.\nFigure 4 Verteporfin (C1) suppresses IL-17 production and autoimmune responses in mice. A–C) Effect of C1 administration (0.4 μg/g body weight every 3 d for a period of 30 d) on serum IL-17A and autoantibodies in 20-wk-old Lck-GLK Tg mice. B) ELISA of serum IL-17A, IL-6, TNF-α, IFN-γ, and IL-17F in Lck-GLK Tg mice treated with C1 or PBS for 16 d. C) ELISA of serum autoantibodies in Lck-GLK Tg mice treated with C1 or PBS for 30 d. Means ± SEM are shown; n = 4/group. D) EAE induction in wild-type C57BL/6J mice treated with PBS or C1 (0.4 μg/g body weight every 3 d). Clinical scores are presented on a scale of 1–5. PBS group, n = 10; C1 group, n = 7. E) ELISA of IL-17A in the sera from MOG-immunized mice at day 16. F) Induction of CIA in wild-type C57BL/6J mice treated with C1 (0.4 μg/g body weight every 3 d) or PBS. Clinical scores are presented on a scale of 1–16; n = 4/group. G) ELISA of serum IL-17A in collagen-immunized mice at d 28. Data shown are representatives of 3 independent experiments. α-dsDNA, anti-dsDNA antibody; ANA, anti-nuclear antibody; N.S., not significant; RF, rheumatoid factor. Means ± SEM are shown. *P < 0.05, **P < 0.01, ***P < 0.001 (2-tailed Student’s t test)."}, "[1]": {"test_system": "human peripheral blood T cells", "test": "ELISA of cytokines in supernatants of anti-CD3/CD28-stimulated human peripheral blood T cells", "type": "cell-based", "conditions": "for inhibition of IL-17A: 1 μM", "description": "Primary human T cells were freshly isolated and negatively selected from the PBLs of clinical samples using a cocktail of biotin-conjugated anti-CD19, anti-CD14, and anti-CD11b antibodies (BioLegend) on a magnetic cell separation column (Miltenyi Biotec, Bergisch Gladbach, Germany) ([26]). In addition, primary murine T cells were negatively selected from the spleens of mice using magnetically coupled antibodies against CD11b, B220, CD49b, CD235, and TER-119 (Miltenyi Biotec) ([18]).\nWe further studied whether IL-17A production is abolished by verteporfin in human and murine T cells. We first tested the inhibitory effect of verteporfin in murine T cells stimulated with T-cell receptor (TCR) signaling (anti-CD3 plus anti-CD28 antibodies). […] This reduction is likely due to the inhibition of NF-κB activation ([18]) by the verteporfin treatment. This notion is supported by our published results that TCR-induced TNF-α and IFN-γ levels in T cells are inhibited by IKK-β conditional knockout ([18]). Next, we studied whether verteporfin attenuates IL-17A production using human peripheral blood T cells with stimulation. The levels of T-cell–secreted IL-17A in unstimulated T cells from patients with SLE and RA were enhanced compared with those from healthy controls (Fig. 5B). […] GLK overexpression in T cells selectively induces IL-17A production in Lck-GLK Tg mice ([18]). […] The inhibition of the production of other cytokines by the high-dose but not low-dose verteporfin treatment may be due to a requirement of higher concentration of verteporfin for an efficient inhibition of NF-κB activation.\nFigure 5 Verteporfin (C1) blocks IL-17 production of human T cells. A) ELISA of various cytokines in supernatants of murine primary T cells stimulated with anti-CD3 or CD28 and cotreated with C1 (5 or 10 μM) for 3 d. Means ± SD are shown; n = 3/group. B) ELISA of various cytokines in supernatants of human T cells. T cells were stimulated with anti-CD3 or CD28 and cotreated with C1 (1 or 5 μM) for 3 d. HC, healthy control; N.S., not significant. Means ± SD are shown. *P < 0.05, **P < 0.01, ***P < 0.001 (2-tailed Student’s t test).\nSupplementary Figure 6. Inhibition of IL-17A overproduction by verteporfin in inflammatory T cells from SLE or RA patients. (A) ELISA of various cytokines in supernatants of T cells from RA patients. T cells were stimulated with anti-CD3/CD28 and co-treated with verteporfin (C1) (1 or 5 μM) for 3 days. Means ± SD are shown. (B) The inhibition (%) of IL-17A by the 1 μM verteporfin (C1) treatment in SLE or RA patients was compared to that of healthy controls (HC). Means ± SEM of are shown. HC, healthy controls; SLE, systemic lupus erythematosus; RA, rheumatoid arthritis."}}, "data": [{"substance": "verteporfin", "values": [{"measurement": "IC50", "setting": "HPK1 (MAP4K1)", "value": 0.00791, "unit": "µM"}, {"measurement": "IC50", "setting": "KHS (MAP4K5)", "value": 0.0439, "unit": "µM"}, {"measurement": "serum levels of IL-6, TNF-α, IFN-γ, and IL-4, CIA", "setting": "CIA mice; 0.4 μg/g body weight i.v. every 3 d", "value": "not significantly decreased"}, {"measurement": "serum IL-17A levels, CIA", "setting": "CIA mice; 0.4 μg/g body weight i.v. every 3 d, d 28", "value": "significantly suppressed"}, {"measurement": "disease severity (clinical score), CIA", "setting": "CIA mice; 0.4 μg/g body weight i.v. every 3 d from d 21", "value": "significantly suppressed"}, {"measurement": "inhibition of IL-17A", "setting": "[1]; T cells of healthy controls", "value": "~48", "unit": "%"}, {"measurement": "inhibition of IL-17A", "setting": "[1]; T cells of patients with SLE or RA", "value": "~75", "unit": "%"}, {"measurement": "IL-17A production", "setting": "[1]; T cells from patients with SLE and RA and healthy controls, 1 or 5 μM for 3 d", "value": "significantly reduced"}, {"measurement": "production of IL-17A, IL-6, IL-10, TNF-α, and IFN-γ", "setting": "[1]; high-dose 5 μM, T cells of healthy controls and patients with SLE", "value": "significantly inhibited"}, {"measurement": "production of IL-6, IL-10, TNF-α, and IFN-γ", "setting": "[1]; low-dose 1 μM, T cells from patients with SLE or RA", "value": "modestly inhibited"}]}]}
